{
  "source": "paper PMC7878787",
  "about": "(Scientific Reports, 2021)",
  "key": {"PC-3 xenografts": {"tested_on": "PC-3 xenografts", "assay": "Biodistribution in mice bearing PC-3 xenografts", "format": "in vivo, Balb/c nu/nu mice", "method": "(§1) Mice were sacrificed 3 h and 22 h pi by intraperitoneal injection of a lethal dose of Ketalar-Rompun solution (10 mg/mL Ketaminol (Intervet) and 1 mg/mL Rompun (Bayer); 20 μL solution/gram of body weight). Tumors were collected as well as samples of blood, lung, liver, spleen, pancreas, stomach, small intestine, kidneys, muscle, and bone. Gastrointestinal (GI) tract and carcass were also collected. Samples were weighed, and measured for activity content in the automated gamma counter. Corrections for background, spill-over and decay were performed for all measurements.\n(§2) Biodistribution of [^68Ga]Ga-NOTA-PEG2-RM26 3 h pi was included for comparison. Mice were therefore injected with 40–50 pmol (250 kBq) ^68Ga-NOTA-PEG2-RM26, euthanized 3 h pi and samples were collected according to the protocol described above."}, "[1]": {"assay": "Analysis of blood metabolites (radio-HPLC of plasma)", "format": "in vivo", "conditions": "5 min pi, NMRI mice; for radiometal associated with intact peptide in blood plasma: 1.5 nmol (6.75–7.3 MBq)", "method": "NMRI Mice were injected with 1.5 nmol (6.75–7.3 MBq) [^68Ga]Ga-NOTA-PEG2-RM26 and sacrificed 5 min pi by cervical dislocation. Immediately after blood was collected by heart puncture into a pre-chilled heparinized Eppendorf tube. Blood samples were centrifuged (10000RCF, 10 min at 4 °C), plasma was collected and mixed with equal amount of ice cold acetonitrile. The mixture was centrifuged (15,000 RCF, 10 min, 4 °C), the supernatant was collected and sterile filtered with a 0.2 µm PTFE syringe filter. The filtrate was analyzed on HPLC according to the method described above."}, "PC-3 cells": {"tested_on": "PC-3 cells", "assay": "Cellular processing (membrane-bound vs internalized activity)", "format": "cell-based, human", "conditions": "2 nM, continuous incubation 24 h, 37 °C, n = 3", "method": "At pre-determined time points (1 h, 2 h, 4 h, 24 h) cells were incubated with 0.2 M glycine buffer (with 0.15 M NaCl, 4 M Urea, pH 2) for 5 min on ice to collect the membrane-bound activity. Thereafter, cells were incubated at 37 °C for 30 min with 1 M NaOH and collected. Activity content in those samples was considered internalized activity."}, "[2]": {"assay": "Biodistribution in mice bearing PC-3 xenografts", "format": "in vivo, Balb/c nu/nu mice", "conditions": "female, Balb/c nu/nu, mouse, iv, total radioactivity, 3 h pi, 40–50 pmol iv, female Balb/c nu/nu mice with PC-3 xenografts, average ± SD, n = 3–4", "method": "as §1, §2"}, "GRPR": {"biological_target": "T1, GRPR (Mus musculus, UniProt P21729)", "T1 construct": "Mice with GRPR-expressing PC-3 xenografts (implanted 21 d before the experiment) were used for all in vivo studies; from tissue; host or cells: PC-3 xenograft tumors in female Balb/c nu/nu mice", "T1 sequence (P21729 whole entry)": "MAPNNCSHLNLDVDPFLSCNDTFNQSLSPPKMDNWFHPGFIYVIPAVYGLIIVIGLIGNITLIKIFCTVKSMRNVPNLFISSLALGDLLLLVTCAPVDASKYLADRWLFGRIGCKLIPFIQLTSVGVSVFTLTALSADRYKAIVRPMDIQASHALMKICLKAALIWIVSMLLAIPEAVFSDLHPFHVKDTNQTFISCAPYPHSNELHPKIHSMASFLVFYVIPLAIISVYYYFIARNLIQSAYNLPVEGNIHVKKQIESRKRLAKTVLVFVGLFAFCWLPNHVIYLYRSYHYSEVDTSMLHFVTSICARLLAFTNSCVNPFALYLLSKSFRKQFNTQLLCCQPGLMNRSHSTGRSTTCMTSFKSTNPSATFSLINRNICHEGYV", "assay": "In vivo specificity test (co-injection of non-labeled peptide)", "parameters": "species or system Balb/c nu/nu mice", "conditions": "3 h pi, co-injection of 10 nmol non-labeled NOTA-PEG2-RM26, p < 0.002", "method": "For the in vivo specificity test, mice in the blocking group were co-injected with 10 nmol of non-labeled NOTA-PEG2-RM26 and sacrificed 3 h pi and samples were collected according to the protocol described above."}},
  "note": "Where two headings read alike, the source gives them in different places.",
  "data": [
    {"smiles": "CC(C)C[C@H](NC(=O)C[C@H](O)[C@H](CC(C)C)NC(=O)[C@H](Cc1c[nH]cn1)NC(=O)CNC(=O)[C@@H](NC(=O)[C@H](C)NC(=O)[C@H](Cc1c[nH]c2ccccc12)NC(=O)[C@H](CCC(N)=O)NC(=O)[C@@H](Cc1ccccc1)NC(=O)COCCOCCNC(=O)CN1CCN(CC(=O)O)CCN(CC(=O)O)CC1)C(C)C)C(N)=O", "note": "[[^66Ga]Ga-NOTA-PEG2-RM26] [metal not drawn]", "values": [
      {"measurement": "change of uptake in bone during the observation period", "setting": "PC-3 xenografts; 3 to 22 h pi", "value": "increased"},
      {"measurement": "activity retained in tumors from 3 to 22 h pi", "setting": "PC-3 xenografts; PC-3 xenografts", "value": "approximately 50%"},
      {"measurement": "change of uptake in GRPR-expressing pancreas from 3 to 22 h pi", "setting": "PC-3 xenografts; p < 0.004", "value": "decreased significantly"}
    ]},
    {"smiles": "CC(C)C[C@H](NC(=O)C[C@H](O)[C@H](CC(C)C)NC(=O)[C@H](Cc1c[nH]cn1)NC(=O)CNC(=O)[C@@H](NC(=O)[C@H](C)NC(=O)[C@H](Cc1c[nH]c2ccccc12)NC(=O)[C@H](CCC(N)=O)NC(=O)[C@@H](Cc1ccccc1)NC(=O)COCCOCCNC(=O)CN1CCN(CC(=O)O)CCN(CC(=O)O)CC1)C(C)C)C(N)=O", "note": "[[^68Ga]Ga-NOTA-PEG2-RM26, metal not drawn]", "values": [
      {"measurement": "free gallium, share of activity in blood plasma", "setting": "[1]", "value": 6, "unit": "%"},
      {"measurement": "radiometal associated with intact peptide in blood plasma", "setting": "[1]", "value": "up to 57%"},
      {"measurement": "radiometal associated with intact peptide in blood plasma", "setting": "[1]; listed as gallium labeled NOTA-PEG2-RM26", "value": "up to 60%"}
    ]},
    {"smiles": "CC(C)C[C@H](NC(=O)C[C@H](O)[C@H](CC(C)C)NC(=O)[C@H](Cc1c[nH]cn1)NC(=O)CNC(=O)[C@@H](NC(=O)[C@H](C)NC(=O)[C@H](Cc1c[nH]c2ccccc12)NC(=O)[C@H](CCC(N)=O)NC(=O)[C@@H](Cc1ccccc1)NC(=O)COCCOCCNC(=O)CN1CCN(CC(=O)O)CCN(CC(=O)O)CC1)C(C)C)C(N)=O", "note": "[[^66Ga]Ga-NOTA-PEG2-RM26, metal not drawn]", "values": [
      {"measurement": "fraction of internalized activity, of cell-associated activity", "setting": "PC-3 cells", "value": 17, "unit": "%"},
      {"measurement": "tissue uptake at 3 h", "setting": "[2]; bone, read-out: Uptake, Bone", "value": "0.5 ± 0.3", "unit": "%ID/g"},
      {"measurement": "tissue uptake at 3 h", "setting": "[2]; kidney, read-out: Uptake, Kidney", "value": "1.7 ± 0.4", "unit": "%ID/g"},
      {"measurement": "tissue uptake at 3 h", "setting": "[2]; liver, read-out: Uptake, Liver", "value": "0.28 ± 0.06", "unit": "%ID/g"},
      {"measurement": "tissue uptake at 3 h", "setting": "[2]; lung, read-out: Uptake, Lung", "value": "0.5 ± 0.4", "unit": "%ID/g"},
      {"measurement": "tissue uptake at 3 h", "setting": "[2]; pancreas, read-out: Uptake, Pancreas", "value": "3.4 ± 0.7", "unit": "%ID/g"},
      {"measurement": "tissue uptake at 3 h", "setting": "[2]; stomach, read-out: Uptake, Stomach", "value": "1.9 ± 0.4", "unit": "%ID/g"},
      {"measurement": "tissue uptake at 3 h", "setting": "[2]; tumor (PC-3 xenograft), read-out: Uptake, Tumor", "value": "14 ± 1", "unit": "%ID/g"},
      {"measurement": "tissue uptake at 3 h", "setting": "[2]; whole blood, read-out: Uptake, Blood", "value": "0.15 ± 0.06", "unit": "%ID/g"},
      {"measurement": "uptake in pancreas, blocked vs non-blocked", "setting": "GRPR", "value": "significant decrease"}
    ]}
  ]
}
